# According to ChEMBL document CHEMBL5649169 (ChemMedChem, 2018):
# Key:
# [1] = target: Cyclin-dependent kinase 3 (Homo sapiens) (UniProt Q00526)
# [2] = target: Large ribosomal subunit protein uL15 (Homo sapiens) (UniProt P46776)
# [3] = target: Mitochondrial 2-oxoglutarate/malate carrier protein (Homo sapiens) (UniProt Q02978)
# [4] = target: Equilibrative nucleobase transporter 1 (Homo sapiens) (UniProt Q8NBI5)
# [5] = target: Serine/threonine-protein kinase TBK1 (Homo sapiens) (UniProt Q9UHD2)
# [6] = target: High mobility group protein B2 (Homo sapiens) (UniProt P26583)
# [7] = target: Deoxyribose-phosphate aldolase (Homo sapiens) (UniProt Q9Y315)
# [8] = target: Histone acetyltransferase type B catalytic subunit (Homo sapiens) (UniProt O14929)
# [9] = target: Histone-binding protein RBBP4 (Homo sapiens) (UniProt Q09028)
# [10] = target: Heterogeneous nuclear ribonucleoprotein K (Homo sapiens) (UniProt P61978)
# [11] = target: Exosome RNA helicase MTR4 (Homo sapiens) (UniProt P42285)
# Emerin (Homo sapiens) = Emerin (Homo sapiens) (UniProt P50402)
# [12] = target: Ras-related protein Rab-14 (Homo sapiens) (UniProt P61106)
# [13] = target: G2/mitotic-specific cyclin-B1 (Homo sapiens) (UniProt P14635)
# [14] = target: Small ribosomal subunit protein uS13 (Homo sapiens) (UniProt P62269)
# [15] = target: Pre-mRNA-processing factor 40 homolog A (Homo sapiens) (UniProt O75400)
# [16] = target: Ribonuclease H1 (Homo sapiens) (UniProt O60930)
# [17] = target: Extended synaptotagmin-2 (Homo sapiens) (UniProt A0FGR8)
# [18] = target: Aurora kinase B (Homo sapiens) (UniProt Q96GD4)
# [19] = target: Atypical kinase COQ8A, mitochondrial (Homo sapiens) (UniProt Q8NI60)
# [20] = target: Splicing factor, proline- and glutamine-rich (Homo sapiens) (UniProt P23246)
# [21] = target: Cathepsin B (Homo sapiens) (UniProt P07858)
# [22] = target: Deoxycytidine kinase (Homo sapiens) (UniProt P27707)
# [23] = target: Large ribosomal subunit protein uL11 (Homo sapiens) (UniProt P30050)
# [24] = target: Large neutral amino acids transporter small subunit 1 (Homo sapiens) (UniProt Q01650)
# [25] = target: Tubulin beta-6 chain (Homo sapiens) (UniProt Q9BUF5)
# [26] = target: Heterogeneous nuclear ribonucleoprotein M (Homo sapiens) (UniProt P52272)
# [27] = target: Pyridoxal kinase (Homo sapiens) (UniProt O00764)
# [28] = target: Exportin-2 (Homo sapiens) (UniProt P55060)
# [29] = target: Heterogeneous nuclear ribonucleoprotein H (Homo sapiens) (UniProt P31943)
# [30] = target: Large ribosomal subunit protein uL18 (Homo sapiens) (UniProt P46777)
# Cyclin-T1 (Homo sapiens) = Cyclin-T1 (Homo sapiens) (UniProt O60563)
# [31] = target: Alkyldihydroxyacetonephosphate synthase, peroxisomal (Homo sapiens) (UniProt O00116)
# [32] = target: Peripherin (Homo sapiens) (UniProt P41219)
# [33] = target: L-lactate dehydrogenase B chain (Homo sapiens) (UniProt P07195)
# [34] = target: General transcription and DNA repair factor IIH helicase subunit XPD (Homo sapiens) (UniProt P18074)
# [35] = target: Eukaryotic translation initiation factor 4H (Homo sapiens) (UniProt Q15056)
# Metaxin-2 (Homo sapiens) = Metaxin-2 (Homo sapiens) (UniProt O75431)
# [36] = target: Heterogeneous nuclear ribonucleoprotein L (Homo sapiens) (UniProt P14866)
# [37] = target: E3 ubiquitin-protein ligase RNF213 (Homo sapiens) (UniProt Q63HN8)
# [38] = target: Double-stranded RNA-specific adenosine deaminase (Homo sapiens) (UniProt P55265)
# [39] = target: Mitogen-activated protein kinase 7 (Homo sapiens) (UniProt Q13164)
# [40] = target: Ephrin type-B receptor 2 (Homo sapiens) (UniProt P29323)
# [41] = target: V-type proton ATPase subunit H (Homo sapiens) (UniProt Q9UI12)
# [42] = target: THO complex subunit 4 (Homo sapiens) (UniProt Q86V81)
# [43] = target: ATPase family AAA domain-containing protein 3A (Homo sapiens) (UniProt Q9NVI7)
# [44] = target: Deoxynucleoside triphosphate triphosphohydrolase SAMHD1 (Homo sapiens) (UniProt Q9Y3Z3)
# Further: assay method not described here.
# Sequence of Extended synaptotagmin-2 (Homo sapiens) (A0FGR8 whole entry): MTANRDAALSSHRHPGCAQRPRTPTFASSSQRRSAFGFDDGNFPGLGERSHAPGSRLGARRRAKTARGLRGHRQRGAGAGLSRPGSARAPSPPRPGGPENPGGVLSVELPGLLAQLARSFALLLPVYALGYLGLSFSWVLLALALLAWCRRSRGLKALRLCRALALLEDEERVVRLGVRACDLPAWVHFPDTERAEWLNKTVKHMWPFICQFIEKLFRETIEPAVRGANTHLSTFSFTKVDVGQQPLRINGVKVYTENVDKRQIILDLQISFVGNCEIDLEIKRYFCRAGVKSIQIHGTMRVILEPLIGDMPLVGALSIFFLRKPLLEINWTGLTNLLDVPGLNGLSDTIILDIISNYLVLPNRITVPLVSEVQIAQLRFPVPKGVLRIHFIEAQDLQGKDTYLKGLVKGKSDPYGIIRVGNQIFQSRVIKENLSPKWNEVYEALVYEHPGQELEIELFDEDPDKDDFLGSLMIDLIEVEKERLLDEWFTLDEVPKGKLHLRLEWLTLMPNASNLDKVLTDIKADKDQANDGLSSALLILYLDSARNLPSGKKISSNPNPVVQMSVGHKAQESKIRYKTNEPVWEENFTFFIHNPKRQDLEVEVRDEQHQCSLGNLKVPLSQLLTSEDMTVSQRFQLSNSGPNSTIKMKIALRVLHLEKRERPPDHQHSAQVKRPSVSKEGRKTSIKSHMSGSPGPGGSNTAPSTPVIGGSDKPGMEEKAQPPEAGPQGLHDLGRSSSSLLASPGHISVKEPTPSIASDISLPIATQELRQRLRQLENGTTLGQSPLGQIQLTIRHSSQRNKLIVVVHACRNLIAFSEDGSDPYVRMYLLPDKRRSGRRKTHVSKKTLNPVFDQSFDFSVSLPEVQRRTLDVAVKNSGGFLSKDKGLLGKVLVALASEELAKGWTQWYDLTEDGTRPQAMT
# Sequence of Exportin-2 (Homo sapiens) (P55060 whole entry): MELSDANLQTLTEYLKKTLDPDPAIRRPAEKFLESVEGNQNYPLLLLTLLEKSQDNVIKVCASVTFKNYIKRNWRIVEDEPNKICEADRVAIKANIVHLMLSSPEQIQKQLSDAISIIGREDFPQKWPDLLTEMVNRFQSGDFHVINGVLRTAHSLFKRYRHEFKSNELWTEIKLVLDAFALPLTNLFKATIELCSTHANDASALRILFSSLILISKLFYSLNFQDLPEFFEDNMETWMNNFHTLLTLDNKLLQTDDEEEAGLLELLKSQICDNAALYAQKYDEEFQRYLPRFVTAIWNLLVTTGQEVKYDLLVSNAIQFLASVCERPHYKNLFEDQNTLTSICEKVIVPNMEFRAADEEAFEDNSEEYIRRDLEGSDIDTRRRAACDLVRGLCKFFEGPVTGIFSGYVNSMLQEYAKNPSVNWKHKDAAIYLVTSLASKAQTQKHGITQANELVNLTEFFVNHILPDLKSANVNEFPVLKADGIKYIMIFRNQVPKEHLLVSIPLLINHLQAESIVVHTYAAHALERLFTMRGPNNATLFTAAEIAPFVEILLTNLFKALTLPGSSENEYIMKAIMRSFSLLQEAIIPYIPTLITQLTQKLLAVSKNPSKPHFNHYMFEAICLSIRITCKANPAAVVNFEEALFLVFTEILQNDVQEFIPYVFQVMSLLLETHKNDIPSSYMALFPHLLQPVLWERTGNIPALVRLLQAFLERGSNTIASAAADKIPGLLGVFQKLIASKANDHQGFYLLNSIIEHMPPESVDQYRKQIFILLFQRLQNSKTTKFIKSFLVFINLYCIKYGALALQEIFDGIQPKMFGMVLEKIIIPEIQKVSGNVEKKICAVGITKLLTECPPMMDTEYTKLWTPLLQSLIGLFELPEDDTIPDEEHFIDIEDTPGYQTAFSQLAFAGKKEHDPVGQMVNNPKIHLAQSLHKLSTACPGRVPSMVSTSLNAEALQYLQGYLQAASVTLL
# Sequence of Ras-related protein Rab-14 (Homo sapiens) (P61106 2-215 limits assumed): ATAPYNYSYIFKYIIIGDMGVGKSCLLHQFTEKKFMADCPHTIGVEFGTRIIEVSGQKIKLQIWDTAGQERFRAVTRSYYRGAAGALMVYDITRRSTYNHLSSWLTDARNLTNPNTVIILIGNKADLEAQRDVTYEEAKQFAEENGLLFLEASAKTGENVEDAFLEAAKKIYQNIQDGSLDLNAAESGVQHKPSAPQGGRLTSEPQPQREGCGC
# Sequence of Deoxyribose-phosphate aldolase (Homo sapiens) (Q9Y315 whole entry): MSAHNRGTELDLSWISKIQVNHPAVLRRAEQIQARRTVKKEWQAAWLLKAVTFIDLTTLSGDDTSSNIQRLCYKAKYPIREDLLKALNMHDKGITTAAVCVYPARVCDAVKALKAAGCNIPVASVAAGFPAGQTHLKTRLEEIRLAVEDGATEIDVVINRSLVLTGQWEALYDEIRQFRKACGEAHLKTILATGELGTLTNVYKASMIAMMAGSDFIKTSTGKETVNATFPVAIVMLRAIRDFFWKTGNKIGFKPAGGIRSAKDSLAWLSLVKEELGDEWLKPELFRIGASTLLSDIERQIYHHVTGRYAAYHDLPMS
# Sequence of Equilibrative nucleobase transporter 1 (Homo sapiens) (Q8NBI5 whole entry): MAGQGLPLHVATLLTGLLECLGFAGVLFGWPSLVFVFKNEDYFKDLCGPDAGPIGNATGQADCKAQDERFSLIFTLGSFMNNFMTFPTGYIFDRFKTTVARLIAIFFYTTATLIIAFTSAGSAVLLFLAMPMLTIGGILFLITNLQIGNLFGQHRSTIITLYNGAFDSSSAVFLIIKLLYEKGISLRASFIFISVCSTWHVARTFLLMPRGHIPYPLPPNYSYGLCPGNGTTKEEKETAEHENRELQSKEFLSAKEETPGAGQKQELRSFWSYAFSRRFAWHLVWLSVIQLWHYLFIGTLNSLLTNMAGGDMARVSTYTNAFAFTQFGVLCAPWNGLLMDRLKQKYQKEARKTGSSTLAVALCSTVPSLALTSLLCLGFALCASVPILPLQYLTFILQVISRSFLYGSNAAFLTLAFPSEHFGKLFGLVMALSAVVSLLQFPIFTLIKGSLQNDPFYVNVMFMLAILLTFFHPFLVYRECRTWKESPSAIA
# Sequence of Histone acetyltransferase type B catalytic subunit (Homo sapiens) (O14929 2-419 limits assumed): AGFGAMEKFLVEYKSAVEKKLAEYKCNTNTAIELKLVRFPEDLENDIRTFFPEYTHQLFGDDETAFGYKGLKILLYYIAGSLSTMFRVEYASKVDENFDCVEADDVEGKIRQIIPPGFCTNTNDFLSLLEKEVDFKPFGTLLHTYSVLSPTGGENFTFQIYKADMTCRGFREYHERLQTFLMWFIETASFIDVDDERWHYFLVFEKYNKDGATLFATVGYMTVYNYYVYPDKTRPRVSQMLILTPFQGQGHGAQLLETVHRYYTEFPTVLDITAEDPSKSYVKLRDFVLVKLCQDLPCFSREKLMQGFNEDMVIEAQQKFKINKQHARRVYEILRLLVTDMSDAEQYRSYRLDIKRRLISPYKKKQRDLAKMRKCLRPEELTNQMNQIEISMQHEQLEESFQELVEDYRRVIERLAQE
# Sequence of Peripherin (Homo sapiens) (P41219 whole entry): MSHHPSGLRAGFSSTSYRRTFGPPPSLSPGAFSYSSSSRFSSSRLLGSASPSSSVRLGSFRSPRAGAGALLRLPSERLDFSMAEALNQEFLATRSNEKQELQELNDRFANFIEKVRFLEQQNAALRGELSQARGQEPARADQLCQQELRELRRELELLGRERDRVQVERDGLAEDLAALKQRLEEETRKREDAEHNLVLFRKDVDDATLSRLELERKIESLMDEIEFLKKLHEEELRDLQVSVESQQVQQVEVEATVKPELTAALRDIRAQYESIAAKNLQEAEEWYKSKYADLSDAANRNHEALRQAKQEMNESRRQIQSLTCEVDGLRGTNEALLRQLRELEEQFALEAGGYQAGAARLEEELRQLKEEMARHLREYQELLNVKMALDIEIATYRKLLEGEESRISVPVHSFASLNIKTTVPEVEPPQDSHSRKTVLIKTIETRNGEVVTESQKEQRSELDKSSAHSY
# Sequence of High mobility group protein B2 (Homo sapiens) (P26583 whole entry): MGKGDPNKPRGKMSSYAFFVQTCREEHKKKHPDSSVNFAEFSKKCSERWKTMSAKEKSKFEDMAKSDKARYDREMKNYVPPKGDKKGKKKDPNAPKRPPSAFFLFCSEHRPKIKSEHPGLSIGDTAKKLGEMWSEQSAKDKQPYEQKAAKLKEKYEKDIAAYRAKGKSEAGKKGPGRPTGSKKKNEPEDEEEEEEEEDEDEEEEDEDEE
# Sequence of Alkyldihydroxyacetonephosphate synthase, peroxisomal (Homo sapiens) (O00116 whole entry): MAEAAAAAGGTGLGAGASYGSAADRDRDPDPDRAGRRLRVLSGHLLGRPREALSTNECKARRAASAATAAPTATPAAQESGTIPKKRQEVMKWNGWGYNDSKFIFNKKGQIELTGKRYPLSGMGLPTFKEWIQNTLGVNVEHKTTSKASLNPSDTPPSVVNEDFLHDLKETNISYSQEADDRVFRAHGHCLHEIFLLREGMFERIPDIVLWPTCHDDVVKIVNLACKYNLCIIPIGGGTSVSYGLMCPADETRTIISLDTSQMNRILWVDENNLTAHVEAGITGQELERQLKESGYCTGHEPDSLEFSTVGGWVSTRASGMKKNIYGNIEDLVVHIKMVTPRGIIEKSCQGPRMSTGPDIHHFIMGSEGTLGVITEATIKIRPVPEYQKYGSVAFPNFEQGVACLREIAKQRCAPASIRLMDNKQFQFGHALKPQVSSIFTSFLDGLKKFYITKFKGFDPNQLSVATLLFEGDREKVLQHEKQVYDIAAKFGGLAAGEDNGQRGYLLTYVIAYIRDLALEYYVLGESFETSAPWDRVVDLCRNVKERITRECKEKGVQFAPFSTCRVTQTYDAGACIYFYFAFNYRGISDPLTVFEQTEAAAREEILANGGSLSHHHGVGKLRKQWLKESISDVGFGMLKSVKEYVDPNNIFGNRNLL
smiles,measurement,setting,value
Cc1ccc(C(=O)Nc2cccc(C(F)(F)F)c2)cc1Nc1nc(-c2cccnc2)nc2c1cnn2C,ED50,[1],0.134 µM
same,ED50,[2],5.95 µM
same,ED50,[3],0.0531 µM
same,ED50,[4],12.9 µM
same,ED50,[5],0.0187 µM
same,ED50,[6],11.3 µM
same,ED50,[7],3.14 µM
same,ED50,[8],0.183 µM
same,ED50,[9],11 µM
same,ED50,[10],0.0564 µM
same,ED50,[11],0.385 µM
same,ED50,Emerin (Homo sapiens),45.5 µM
same,ED50,[12],2.88 µM
same,ED50,[13],0.205 µM
same,ED50,[14],2.79 µM
same,ED50,[15],0.0134 µM
same,ED50,[16],12.7 µM
same,ED50,[17],0.041 µM
same,ED50,[18],11.6 µM
same,ED50,[19],0.39 µM
same,ED50,[20],6.39 µM
same,ED50,[21],60.4 µM
same,ED50,[22],5 µM
same,ED50,[23],3.63 µM
same,ED50,[24],2.22 µM
same,ED50,[25],2.53 µM
same,ED50,[26],8.57 µM
same,ED50,[27],0.00509 µM
same,ED50,[28],1.94 µM
same,ED50,[29],5.86 µM
same,ED50,[30],0.862 µM
same,ED50,Cyclin-T1 (Homo sapiens),0.0168 µM
same,ED50,[31],0.0016 µM
same,ED50,[32],0.178 µM
same,ED50,[33],0.00831 µM
same,ED50,[34],0.199 µM
same,ED50,[35],90.6 µM
same,ED50,Metaxin-2 (Homo sapiens),0.0101 µM
same,ED50,[36],16.4 µM
same,ED50,[37],53.8 µM
same,ED50,[38],0.00467 µM
same,ED50,[39],4.09 µM
same,ED50,[40],2.94 µM
same,ED50,[41],0.00175 µM
same,ED50,[42],70.3 µM
same,ED50,[43],0.0089 µM
same,ED50,[44],0.00363 µM
Cc1ccc(C(=O)Nc2cccc(C(F)(F)F)c2)cc1Nc1nc(-c2cccnc2)nc2nn(C)cc12,ED50,[1],511 µM
same,ED50,[2],16.7 µM
same,ED50,[3],0.00199 µM
same,ED50,[4],33.9 µM
same,ED50,[5],3.85 µM
same,ED50,[6],0.0527 µM
same,ED50,[7],2.45 µM
same,ED50,[8],0.0527 µM
same,ED50,[9],0.458 µM
same,ED50,[10],0.184 µM
same,ED50,[11],4330 µM
same,ED50,Emerin (Homo sapiens),0.501 µM
same,ED50,[12],4.44 µM
same,ED50,[13],5.61 µM
same,ED50,[14],0.00691 µM
same,ED50,[15],0.0135 µM
same,ED50,[16],385 µM
same,ED50,[17],0.0286 µM
same,ED50,[18],0.128 µM
same,ED50,[19],8.58 µM
same,ED50,[20],15 µM
same,ED50,[21],18.1 µM
same,ED50,[22],0.00309 µM
same,ED50,[23],0.0513 µM
same,ED50,[24],1.19 µM
same,ED50,[25],4.67 µM
same,ED50,[26],13.5 µM
same,ED50,[27],1.19 µM
same,ED50,[28],0.487 µM
same,ED50,[29],13.2 µM
same,ED50,[30],11.5 µM
same,ED50,Cyclin-T1 (Homo sapiens),0.0502 µM
same,ED50,[31],0.486 µM
same,ED50,[32],1.74 µM
same,ED50,[33],9.99 µM
same,ED50,[34],21.8 µM
same,ED50,[35],10.8 µM
same,ED50,Metaxin-2 (Homo sapiens),1.77 µM
same,ED50,[36],0.042 µM
same,ED50,[37],0.595 µM
same,ED50,[38],0.0077 µM
same,ED50,[39],5.74 µM
same,ED50,[40],6.16 µM
same,ED50,[41],2.38 µM
same,ED50,[42],4.45 µM
same,ED50,[43],7.99 µM
same,ED50,[44],12.8 µM
